Each structure is given as a SMILES string.

The nature of the series: log P determination. The conditions noted are these: pH 2.7. Format: physicochemical.

`Cn1nnnc1C(=NO)c1ccccc1` [Example 1, sodium {[(1-methyl-1H-tetrazol-5-yl)(phenyl)methylene]amino}oxidanide] showed a logP of 1.45.

(Values after patent US9212152B2, “Process for the preparation of N-hydroxy-1-(1-alkyl-1H-tetrazol-5-yl)-1-phenylmethanimine derivatives” (BAYER INTELLECTUAL PROPERTY GMBH, priority 2012, dated 2015).)
